The source of these data is patent publication US20250230193A1, “CYCLIC COMPOUND HAVING SELECTIVE KRAS INHIBITORY EFFECT ON HRAS AND NRAS” (CHUGAI SEIYAKU KABUSHIKI KAISHA, priority 2022, published 2025).

Assay [1] addresses GDP-bound NRAS wild-type protein (Homo sapiens, UniProt P01111). Briefly: Binding to NRAS by surface plasmon resonance (SPR), Single Cycle Kinetics.
Assay [2] addresses GDP-bound HRAS wild-type protein (Homo sapiens, UniProt P01112). Briefly: Binding to HRAS by surface plasmon resonance (SPR), Single Cycle Kinetics. A general note: In SPR one partner is held on a chip, and binding of the other changes the refractive index at the surface.
[3] abbreviates: KD ratio, GDP-bound NRAS wild-type vs GDP-bound KRAS wild-type, SPR.
Setting [4] is: KD ratio, GDP-bound HRAS wild-type vs GDP-bound KRAS wild-type, SPR.

Chain of GDP-bound NRAS wild-type protein (P01111 whole entry): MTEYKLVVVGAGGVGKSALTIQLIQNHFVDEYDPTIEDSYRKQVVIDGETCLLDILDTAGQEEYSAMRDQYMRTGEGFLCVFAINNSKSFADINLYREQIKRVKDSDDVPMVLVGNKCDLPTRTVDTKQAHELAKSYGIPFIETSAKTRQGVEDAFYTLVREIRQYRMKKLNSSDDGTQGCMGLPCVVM
Chain of GDP-bound HRAS wild-type protein (P01112 whole entry): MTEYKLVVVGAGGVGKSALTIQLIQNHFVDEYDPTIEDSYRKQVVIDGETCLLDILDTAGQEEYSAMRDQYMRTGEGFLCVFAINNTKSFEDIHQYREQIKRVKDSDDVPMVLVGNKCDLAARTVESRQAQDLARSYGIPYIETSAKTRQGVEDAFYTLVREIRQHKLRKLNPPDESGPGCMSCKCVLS

As for `CCO[C@@H]1C[C@H]2C(=O)NC3(CCC3)C(=O)N(C)[C@@H](C3CCCC3)C(=O)N(C)[C@H](C(=O)N(C)CC)CC(=O)N(C)[C@@H](CC(C)C)C(=O)N[C@@H]([C@@H](C)CC)C(=O)N(C)CC(=O)N(C)[C@H]3C/C=C\CCN(C3=O)[C@@H](Cc3ccc(C(F)(F)F)cc3)C(=O)N(C)CC(=O)N[C@@H](CCc3cc(F)c(C(F)(F)F)c(F)c3)C(=O)N2C1` [PP1300], the “NRAS/KRAS (ratio of KD value for GDP-bound NRAS wild-type protein to KD value for KRAS)” value in assay [1] (SPR, KD ratio class) was “A (a compound having 10 or more and less than 20 is denoted as A)”. Moreover, in assay [2] (SPR, KD ratio class), the “HRAS/KRAS (ratio of KD value for GDP-bound HRAS wild-type protein to KD value for KRAS)” value was “A (a compound having 10 or more and less than 20 is denoted as A)”.
`CCO[C@@H]1C[C@H]2C(=O)NC3(CCC3)C(=O)N(C)[C@@H](C3CCCC3)C(=O)N(C)[C@H](C(=O)N3CCOCC3)CC(=O)N(C)[C@@H](Cc3ccsc3)C(=O)N[C@@H]([C@@H](C)CC)C(=O)N(C)CC(=O)N(C)[C@H]3CCCCCN(C3=O)[C@@H](Cc3ccc(F)cc3)C(=O)N(C)CC(=O)N[C@@H](CCc3cc(F)c(C(F)(F)F)c(F)c3)C(=O)N2C1` [PP1184]: the “NRAS/KRAS (ratio of KD value with respect to NRAS to KD value with respect to KRAS)” value in assay [1] (setting [3]) was “B (a compound having 3 or more and less than 10 is denoted as B)”. In addition, the “HRAS/KRAS (ratio of KD value with respect to HRAS to KD value with respect to KRAS)” value in assay [2] (setting [4]) was “B (a compound having 3 or more and less than 10 is denoted as B)”.
Turning to `CCC(CC)[C@H]1C(=O)N(C)[C@H](C(=O)N(C)C)CC(=O)N(C)[C@@H](COC)C(=O)N[C@@H]([C@@H](C)CC)C(=O)N(C)CC(=O)N(C)[C@H]2C/C=C\CCN(C2=O)[C@@H](Cc2ccc(C)cc2)C(=O)N(C)CC(=O)N[C@@H](CCc2ccc(C(F)(F)F)c(Cl)c2)C(=O)N2CCCCC[C@H]2C(=O)NC2(CC(C)(C)C2)C(=O)N1C` [PP2966], the “NRAS/KRAS (ratio of KD value with respect to GDP-bound NRAS wild-type protein to KD value with respect to KRAS)” value in assay [1] (class symbols) is “A (a compound having 10 or more and less than 20 is denoted as A)”. For the same molecule, the “HRAS/KRAS (ratio of KD value with respect to GDP-bound HRAS wild-type protein to KD value with respect to KRAS)” value in assay [2] (class symbols) is “A (a compound having 10 or more and less than 20 is denoted as A)”.
Consider `CCO[C@@H]1C[C@H]2C(=O)NC3(CC(C)(C)C3)C(=O)N(C)[C@@H](CC3CCC3)C(=O)N(C)[C@H](C(=O)N(C)C)CC(=O)N(C)[C@@H](COC)C(=O)N[C@@H]([C@@H](C)CC)C(=O)N(C3CC3)CC(=O)N(C)[C@H]3C/C=C\CCN(C3=O)[C@@H](Cc3ccc(C(F)(F)F)cc3)C(=O)N(C)CC(=O)N[C@@H](CCc3cc(F)c(C(F)(F)F)c(F)c3)C(=O)N2C1` [PP2769], for which the “NRAS/KRAS (ratio of KD value with respect to GDP-bound NRAS wild-type protein to KD value with respect to KRAS)” value in assay [1] (class symbols) is listed as “AA (a compound having 20 or more is denoted as AA)”. The “HRAS/KRAS (ratio of KD value with respect to GDP-bound HRAS wild-type protein to KD value with respect to KRAS)” value in assay [2] (class symbols) is “A (a compound having 10 or more and less than 20 is denoted as A)”.
With `CCO[C@@H]1C[C@H]2C(=O)NC3(CCC3)C(=O)N(C)[C@@H](C3CCCC3)C(=O)N(C)[C@H](C(=O)N3CCOCC3)CC(=O)N(C)[C@@H](CC)C(=O)N[C@@H]([C@@H](C)CC)C(=O)N(C)CC(=O)N(C)[C@H]3CCCCCN(C3=O)[C@@H](Cc3ccc(F)cc3)C(=O)N(C)CC(=O)N[C@@H](CCc3cc(F)c(C(F)(F)F)c(F)c3)C(=O)N2C1` [PP1176], the “NRAS/KRAS (ratio of KD value with respect to NRAS to KD value with respect to KRAS)” value in assay [1] (setting [3]) was “B (a compound having 3 or more and less than 10 is denoted as B)”. The “HRAS/KRAS (ratio of KD value with respect to HRAS to KD value with respect to KRAS)” value in assay [2] (setting [4]) was “B (a compound having 3 or more and less than 10 is denoted as B)”.
As for `CCO[C@@H]1C[C@H]2C(=O)NC3(CCC3)C(=O)N(C)[C@@H](C3CCCC3)C(=O)N(C)[C@H](C(=O)N3CCOCC3)CC(=O)N(C)[C@@H](CC(C)C)C(=O)N[C@@H]([C@@H](C)CC)C(=O)N(C)CC(=O)N(C)[C@H]3CCCCCN(C3=O)[C@@H](Cc3ccc(C(F)(F)F)cc3)C(=O)N(C)CC(=O)N[C@@H](CCc3cc(F)c(C(F)(F)F)c(F)c3)C(=O)N2C1` [PP0467], the “NRAS/KRAS (ratio of KD value with respect to GDP-bound NRAS wild-type protein to KD value with respect to KRAS)” value in assay [1] (SPR) was “B (a compound having 3 or more and less than 10 is denoted as B)”. In addition, the “HRAS/KRAS (ratio of KD value with respect to GDP-bound HRAS wild-type protein to KD value with respect to KRAS)” value in assay [2] (SPR) was “B (a compound having 3 or more and less than 10 is denoted as B)”.
Take `CCC[C@H]1C(=O)N[C@@H]([C@@H](C)CC)C(=O)N(C)CC(=O)N(C)[C@H]2C/C=C\CCN(C2=O)[C@@H](CC2CCC(F)(F)CC2)C(=O)N(C)CC(=O)N[C@@H](CCc2ccc(C(F)(F)F)c(OC)c2)C(=O)N2C[C@@H](C)C[C@H]2C(=O)N(C)C2(CCC2)C(=O)N(C)[C@@H](C2CCCC2)C(=O)N(C)[C@H](C(=O)N(C)C)CC(=O)N1C` [PP2376]: the “NRAS/KRAS (ratio of KD value with respect to NRAS to KD value with respect to KRAS)” value in assay [1] (SPR, GDP-bound NRAS wild-type vs GDP-bound KRAS wild-type) was “A (a compound having 10 or more and less than 20 is denoted as A)”. The “HRAS/KRAS (ratio of KD value with respect to HRAS to KD value with respect to KRAS)” value in assay [2] (SPR, GDP-bound HRAS wild-type vs GDP-bound KRAS wild-type) is “A (a compound having 10 or more and less than 20 is denoted as A)”.
`CCC[C@H]1C(=O)N[C@@H]([C@@H](C)CC)C(=O)N(C)CC(=O)N(C)[C@H]2C/C=C\CCN(C2=O)[C@@H](Cc2ccc(C)cc2)C(=O)N(C)CC(=O)N[C@@H](CCc2ccc(C(F)(F)F)c(OC)c2)C(=O)N2C[C@@H](C)C[C@H]2C(=O)NC2(CCC2)C(=O)N(C)[C@@H](C2CCCC2)C(=O)N(C)[C@H](C(=O)N(C)CC)CC(=O)N1C` [PP1840]: the “NRAS/KRAS (ratio of KD value for NRAS to KD value for KRAS)” value in assay [1] (setting [3]) is “A (a compound having 10 or more and less than 20 is denoted as A)”. In addition, in assay [2] (setting [4]), the “HRAS/KRAS (ratio of KD value for HRAS to KD value for KRAS)” value is “B (a compound having 3 or more and less than 10 is denoted as B)”.
